{
  "source": "patent US20130267606A1",
  "about": "“USE OF VITAMIN K FOR WEIGHT MAINTENANCE AND WEIGHT CONTROL” (VITAK B.V., priority 2011, published 2013)",
  "key": {"adipogenesis": {"system": "adipogenesis", "details": "in vitro; cited from earlier work"}, "[1]": {"experiment": "placebo controlled randomized 3-year trial of vitamin K2 (MK-4) on BMI and serum markers in postmenopausal women (Example 3)", "assay_type": "in vivo, human", "details": "for serum ucOC / serum cOC: mean±SD"}, "[2]": {"experiment": "placebo controlled 3-year randomized trial of vitamin K2 (MK-7) on body weight and BMI in postmenopausal women (Example 4)", "assay_type": "in vivo, human", "protocol": "250 apparently healthy postmenopausal women (age range: 55-75 years) were recruited in a placebo controlled 3-year randomized trial to investigate the influence of vitamin K2 (MK-7, 180 μg/day) on body weight and BMI. Exclusion criteria were: BMI>30 kg/m^2, a medical history or use of drugs known to interfere with vitamin K-, calcium- and/or glucose-metabolism. Body height was measured using a wall-mounted stadiometer. Body weight was measured to the nearest 0.1 kg with participants wearing light clothing and no shoes. Body mass index (BMI) was calculated as body weight (kg) divided by the square of height (m^2). Statistical analysis was performed using the statistical package (SPSS vs 17.0 Corp, Chicago, Ill.). […] In the unpaired t-test the difference in response to treatment was statistically significant at P<0.005 after 3 years."}, "[3]": {"details": "after 3 years of supplementation, cited from earlier work"}, "[4]": {"details": "1 year of supplementation, healthy postmenopausal women; cited from earlier work"}, "[5]": {"experiment": "placebo controlled 2-year randomized trial of vitamin K1 on body weight and BMI during and after weight reduction intervention (Example 5)", "assay_type": "in vivo, human", "details": "vitamin K1 1 mg/day", "protocol": "120 apparently healthy but overweight subjects (age range: 35-60 years, 52 men, 68 women) were recruited in a placebo controlled 2-year randomized trial to investigate the influence of vitamin K1 (1 mg/day) on body weight and BMI during and after a 6-month intervention aiming significant weight reduction. At the start of the study participants were randomized to receive either placebo or vitamin K for 24 months. All participants received extensive dietary counselling and were motivated to increase their physical exercise during the first 6 months of the study, with personal contact once weekly. After this initial period, counselling was stopped, but vitamin K/placebo treatment was continued for another 18 months, while participants visited our institute every half year. Inclusion criteria were: apparently healthy, BMI between 25 and 35 kg/m^2, Exclusion criteria were: a medical history or use of drugs known to interfere with vitamin K-, calcium- and/or glucose-metabolism. Body height was measured using a wall-mounted stadiometer. Body weight was measured to the nearest 0.1 kg with participants wearing light clothing and no shoes. Body mass index (BMI) was calculated as body weight (kg) divided by the square of height (m^2). Statistical analysis was performed using the statistical package (SPSS vs 17.0 Corp, Chicago, Ill.)."}, "[6]": {"details": "62.5 mg/kg body weight per day, rats; cited from earlier work"}, "[7]": {"experiment": "vitamin K2 (MK-7) dose-response study, circulating osteocalcin and adiponectin (Example 2)", "assay_type": "in vivo, human"}, "[8]": {"details": "second phase of the study (18 months)"}},
  "note": "Read-outs that look alike come from different tables or passages of the source.",
  "data": [
    {"molecule": "CC(C)=CCC/C(C)=C/CC/C(C)=C/CC/C(C)=C/CC1=C(C)C(=O)c2ccccc2C1=O", "note": "[MK-4]", "values": [
      {"measurement": "adipogenesis", "setting": "adipogenesis", "result": "inhibited"},
      {"measurement": "osteoblastic differentiation", "setting": "adipogenesis", "result": "stimulated"},
      {"measurement": "UCR (ucOC/cOC ratio)", "setting": "[1]; after 3 years MK-4 45 mg/day", "result": "0.12±0.15"},
      {"measurement": "decrease of UCR", "setting": "[1]; after 3 years MK-4 45 mg/day versus baseline, P<0.0001", "result": "74±22", "unit": "%"},
      {"measurement": "serum ucOC", "setting": "[1]; after 3 years MK-4 45 mg/day, P<0.0001", "result": "0.8 ± 1.0", "unit": "ng/mL"},
      {"measurement": "serum cOC", "setting": "[1]; after 3 years MK-4 45 mg/day, P=0.046", "result": "6.9 ± 2.3", "unit": "ng/mL"},
      {"measurement": "circulating adiponectin", "setting": "[1]; after 3 years MK-4 45 mg/day, no significant difference to placebo (P=0.224)", "result": "13.1 ± 8.3", "unit": "µg/mL"},
      {"measurement": "BMI", "setting": "[1]; after 3 years MK-4 45 mg/day, non-significant increase (P=0.463)", "result": "27.2±0.3", "unit": "kg/m^2"},
      {"measurement": "BMI", "setting": "[1]; baseline, MK-4 group", "result": "27.1±0.3", "unit": "kg/m^2"},
      {"measurement": "UCR (ucOC/cOC ratio)", "setting": "[1]; baseline, MK-4 group", "result": "0.54±0.35"},
      {"measurement": "serum cOC", "setting": "[1]; baseline, MK-4 group", "result": "6.4 ± 2.5", "unit": "ng/mL"},
      {"measurement": "serum ucOC", "setting": "[1]; baseline, MK-4 group", "result": "3.2 ± 1.9", "unit": "ng/mL"},
      {"measurement": "circulating adiponectin", "setting": "[1]; baseline, MK-4 group, no significant difference to placebo (P=0.562)", "result": "14.2 ± 9.7", "unit": "µg/mL"},
      {"measurement": "average body weight", "setting": "[1]; remained constant over 3 years MK-4 45 mg/day", "result": "70.3 ± 0.9", "unit": "kg"},
      {"measurement": "BMI", "setting": "[2]; after 3 years supplementation (180 μg/day), P=0.463", "result": "25.4±3.0", "unit": "kg/m^2"},
      {"measurement": "average body weight", "setting": "[2]; after 3 years supplementation (180 μg/day), non-significant change", "result": 67.4, "unit": "kg"},
      {"measurement": "BMI", "setting": "[2]; baseline, treated group", "result": "25.2±2.8", "unit": "kg/m^2"},
      {"measurement": "average body weight", "setting": "[2]; baseline, treated group", "result": 66.9, "unit": "kg"}
    ]},
    {"molecule": "CC1=C(C/C=C(\\C)CCC[C@H](C)CCC[C@H](C)CCCC(C)C)C(=O)c2ccccc2C1=O", "note": "[vitamin K1, phylloquinone]", "values": [
      {"measurement": "adipogenesis", "setting": "adipogenesis", "result": "not"},
      {"measurement": "progression of insulin resistance", "setting": "[3]; older men", "result": "reduced"},
      {"measurement": "progression of insulin resistance", "setting": "[3]; women", "result": "not"},
      {"measurement": "glucose metabolism", "setting": "[4]", "result": "did not alter"},
      {"measurement": "decrease of average body weight and BMI versus placebo", "setting": "[5]; first 6 months with dietary counselling and exercise", "result": "non-significant better performance"},
      {"measurement": "average weight gain versus placebo group", "setting": "[5]; following 18 months (second phase), p<0.05", "result": "significantly lower"},
      {"measurement": "participants returned to their starting weight", "setting": "[5]; [8]", "result": 7, "unit": "participants"},
      {"measurement": "participants without significant weight gain", "setting": "[5]; [8]", "result": 28, "unit": "participants"}
    ]},
    {"molecule": "menaquinone [vitamin K2]", "values": [
      {"measurement": "effect in animal model for auto-immune disease", "setting": "[6]", "result": "protective"}
    ]},
    {"molecule": "CC(C)=CCC/C(C)=C/CC/C(C)=C/CC/C(C)=C/CC/C(C)=C/CC/C(C)=C/CC/C(C)=C/CC1=C(C)C(=O)c2ccccc2C1=O", "note": "[MK-7]", "values": [
      {"measurement": "ucOC/cOC ratio", "setting": "[7]; MK-7 45-360 μg per day for 12 weeks, effect even at 45 μg/day", "result": "significant decrease"},
      {"measurement": "circulating ucOC", "setting": "[7]; MK-7 45-360 μg per day for 12 weeks, effect even at 45 μg/day, healthy men and premenopausal women", "result": "significant decrease"},
      {"measurement": "circulating adiponectin", "setting": "[7]; nutritional levels of MK-7, 12 weeks", "result": "does not affect"},
      {"measurement": "effect on body weight and BMI", "setting": "[2]; nutritionally relevant intake, MK-7 180 μg/day, 3 years, versus placebo increase", "result": "maintenance of body weight and BMI"}
    ]}
  ]
}
